# Tested on: advanced metastatic cancer
# Assay: Antitumor activity: tumor response (RECIST 1.1) and progression-free survival
# Assay type: in vivo, human
# Protocol: Tumor response was assessed using RECIST 1.1. As for drugs with cytostatic antitumor activity, disease control rate was defined as the sum of stable disease (SD) and objective response rates; SD was considered clinically beneficial. Progression-free survival (PFS) was measured from treatment initiation until disease progression or death and was estimated using the Kaplan–Meier method.
# [1] = All patients, M2698 monotherapy 15 mg, N=3
# [2] = All patients, M2698 monotherapy 30 mg, N=3
# [3] = All patients, M2698 monotherapy 60 mg, N=6
# [4] = All patients, M2698 monotherapy 75 mg, N=4
# [5] = All patients, M2698 monotherapy 110 mg, N=4
# [6] = All patients, M2698 monotherapy 160 mg, N=6
# [7] = All patients, M2698 monotherapy 200 mg, N=3
# [8] = All patients, M2698 monotherapy 240 mg, N=17
# [9] = All patients, M2698 monotherapy 320 mg, N=12
# [10] = All patients, M2698 monotherapy 380 mg, N=4
# [11] = All patients, M2698 monotherapy, Total of all dose levels, N=62
# [12] = PAM+ patients with confounding markers, M2698 monotherapy 15 mg, N=1
# [13] = PAM+ patients with confounding markers, M2698 monotherapy 60 mg, N=2
# [14] = PAM+ patients with confounding markers, M2698 monotherapy 75 mg, N=1
# [15] = PAM+ patients with confounding markers, M2698 monotherapy 110 mg, N=1
# [16] = PAM+ patients with confounding markers, M2698 monotherapy 160 mg, N=2
# [17] = PAM+ patients with confounding markers, M2698 monotherapy, Total of all dose levels, N=7
# [18] = PAM+ patients without confounding markers, M2698 monotherapy 15 mg, N=2
# [19] = PAM+ patients without confounding markers, M2698 monotherapy 30 mg, N=2
# [20] = PAM+ patients without confounding markers, M2698 monotherapy 60 mg, N=2
# [21] = PAM+ patients without confounding markers, M2698 monotherapy 75 mg, N=1
# [22] = PAM+ patients without confounding markers, M2698 monotherapy 110 mg, N=2
# [23] = PAM+ patients without confounding markers, M2698 monotherapy 160 mg, N=4
# [24] = PAM+ patients without confounding markers, M2698 monotherapy 200 mg, N=3
# [25] = PAM+ patients without confounding markers, M2698 monotherapy 240 mg, N=16
# [26] = PAM+ patients without confounding markers, M2698 monotherapy 320 mg, N=11
# [27] = PAM+ patients without confounding markers, M2698 monotherapy 380 mg, N=4
# [28] = PAM+ patients without confounding markers, M2698 monotherapy, Total of all dose levels, N=47
# [29] = PAM+ patients, M2698 monotherapy 15 mg, N=3
# [30] = PAM+ patients, M2698 monotherapy 30 mg, N=2
# [31] = PAM+ patients, M2698 monotherapy 60 mg, N=4
# [32] = PAM+ patients, M2698 monotherapy 75 mg, N=2
# [33] = PAM+ patients, M2698 monotherapy 110 mg, N=3
# [34] = PAM+ patients, M2698 monotherapy 160 mg, N=6
# [35] = PAM+ patients, M2698 monotherapy 200 mg, N=3
# [36] = PAM+ patients, M2698 monotherapy 240 mg, N=16
# [37] = PAM+ patients, M2698 monotherapy 320 mg, N=11
# [38] = PAM+ patients, M2698 monotherapy 380 mg, N=4
# [39] = PAM+ patients, M2698 monotherapy, Total of all dose levels, N=54
# [40] = monotherapy, PAM+ with confounding alterations, 1/7
smiles,measurement,setting,value
NC(=O)c1cccc2c(N[C@H](CN3CCC3)c3ccc(Cl)c(C(F)(F)F)c3)ncnc12 [M2698],Patients with stable disease,"54 PAM+ patients, monotherapy",40.7%
same,Median PFS,[1],4.1 months
same,"Response, NE",[1],0 (0.0) n (%)
same,"Response, PD",[1],1 (33.3) n (%)
same,"Response, SD at wk 6",[1],2 (66.7) n (%)
same,Median PFS,[2],4.1 months
same,"Response, NE",[2],0 (0.0) n (%)
same,"Response, PD",[2],0 (0.0) n (%)
same,"Response, SD at wk 6",[2],3 (100) n (%)
same,Median PFS,[3],1.4 months
same,"Response, NE",[3],1 (16.7) n (%)
same,"Response, PD",[3],4 (66.7) n (%)
same,"Response, SD at wk 6",[3],1 (16.7) n (%)
same,Median PFS,[4],1.4 months
same,"Response, NE",[4],0 (0.0) n (%)
same,"Response, PD",[4],3 (75.0) n (%)
same,"Response, SD at wk 6",[4],1 (25.0) n (%)
same,Median PFS,[5],1.3 months
same,"Response, NE",[5],1 (25.0) n (%)
same,"Response, PD",[5],2 (50.0) n (%)
same,"Response, SD at wk 6",[5],1 (25.0) n (%)
same,Median PFS,[6],1.6 months
same,"Response, NE",[6],0 (0.0) n (%)
same,"Response, PD",[6],4 (66.7) n (%)
same,"Response, SD at wk 6",[6],2 (33.3) n (%)
same,Median PFS,[7],4.1 months
same,"Response, NE",[7],0 (0.0) n (%)
same,"Response, PD",[7],1 (33.3) n (%)
same,"Response, SD at wk 6",[7],2 (66.7) n (%)
same,Median PFS,[8],2.0 months
same,"Response, NE",[8],3 (17.6) n (%)
same,"Response, PD",[8],8 (47.1) n (%)
same,"Response, SD at wk 6",[8],6 (35.3) n (%)
same,Median PFS,[9],2.8 months
same,"Response, NE",[9],2 (16.7) n (%)
same,"Response, PD",[9],5 (41.7) n (%)
same,"Response, SD at wk 6",[9],5 (41.7) n (%)
same,Median PFS,[10],6.2 months
same,"Response, NE",[10],2 (50.0) n (%)
same,"Response, PD",[10],0 (0.0) n (%)
same,"Response, SD at wk 6",[10],2 (50.0) n (%)
same,Median PFS,[11],2.3 months
same,"Response, NE",[11],9 (14.5) n (%)
same,"Response, PD",[11],28 (45.2) n (%)
same,"Response, SD at wk 6",[11],25 (40.3) n (%)
same,"Response, NE",[12],0 (0.0) n (%)
same,"Response, PD",[12],0 (0.0) n (%)
same,Median PFS,[13],1.4 months
same,"Response, NE",[13],1 (50.0) n (%)
same,"Response, PD",[13],1 (50.0) n (%)
same,Median PFS,[14],1.4 months
same,"Response, NE",[14],0 (0.0) n (%)
same,"Response, PD",[14],1 (100) n (%)
same,Median PFS,[15],1.3 months
same,"Response, NE",[15],0 (0.0) n (%)
same,"Response, PD",[15],1 (100) n (%)
same,Median PFS,[16],1.4 months
same,"Response, NE",[16],0 (0.0) n (%)
same,"Response, PD",[16],2(100.0) n (%)
same,Median PFS,[17],1.4 months
same,"Response, NE",[17],1 (14.3) n (%)
same,"Response, PD",[17],5 (71.4) n (%)
same,Median PFS,[18],4.1 months
same,"Response, NE",[18],0 (0.0) n (%)
same,"Response, PD",[18],1 (50.0) n (%)
same,"Response, SD at wk 6",[18],1 (50.0) n (%)
same,Median PFS,[19],10.3 months
same,"Response, NE",[19],0 (0.0) n (%)
same,"Response, PD",[19],0 (0.0) n (%)
same,"Response, SD at wk 6",[19],2 (100.0) n (%)
same,Median PFS,[20],1.4 months
same,"Response, NE",[20],0 (0.0) n (%)
same,"Response, PD",[20],2(100.0) n (%)
same,"Response, SD at wk 6",[20],0 (0.0) n (%)
same,Median PFS,[21],2.8 months
same,"Response, NE",[21],0 (0.0) n (%)
same,"Response, PD",[21],0 (0.0) n (%)
same,"Response, SD at wk 6",[21],1(100.0) n (%)
same,Median PFS,[22],15.1 months
same,"Response, NE",[22],1 (50.0) n (%)
same,"Response, PD",[22],0 (0.0) n (%)
same,"Response, SD at wk 6",[22],1 (50.0) n (%)
same,"Response, NE",[23],0 (0.0) n (%)
same,"Response, PD",[23],2 (50.0) n (%)
same,"Response, SD at wk 6",[23],2 (50.0) n (%)
same,Median PFS,[24],4.1 months
same,"Response, NE",[24],0 (0.0) n (%)
same,"Response, PD",[24],1 (33.3) n (%)
same,"Response, SD at wk 6",[24],2 (66.7) n (%)
same,Median PFS,[25],1.9 months
same,"Response, NE",[25],3 (18.8) n (%)
same,"Response, PD",[25],8 (50.0) n (%)
same,"Response, SD at wk 6",[25],5 (31.3) n (%)
same,Median PFS,[26],2.8 months
same,"Response, NE",[26],1 (9.1) n (%)
same,"Response, PD",[26],5 (45.5) n (%)
same,"Response, SD at wk 6",[26],5 (45.5) n (%)
same,Median PFS,[27],6.2 months
same,"Response, NE",[27],2 (50.0) n (%)
same,"Response, PD",[27],0 (0.0) n (%)
same,"Response, SD at wk 6",[27],2 (50.0) n (%)
same,Median PFS,[28],2.8 months
same,"Response, NE",[28],7 (14.9) n (%)
same,"Response, PD",[28],19 (40.4) n (%)
same,"Response, SD at wk 6",[28],21 (44.7) n (%)
same,Clinical benefit rate,"PAM+ patients, monotherapy",40.7%
same,Median PFS,[29],4.1 months
same,"Response, NE",[29],0 (0.0) n (%)
same,"Response, PD",[29],1 (33.3) n (%)
same,"Response, SD at wk 6",[29],2 (66.7) n (%)
same,Median PFS,[30],10.3 months
same,"Response, NE",[30],0 (0.0) n (%)
same,"Response, PD",[30],0 (0.0) n (%)
same,"Response, SD at wk 6",[30],2 (100) n (%)
same,Median PFS,[31],1.4 months
same,"Response, NE",[31],1 (25.0) n (%)
same,"Response, PD",[31],3 (75.0) n (%)
same,"Response, SD at wk 6",[31],0 (0.0) n (%)
same,Median PFS,[32],2.1 months
same,"Response, NE",[32],0 (0.0) n (%)
same,"Response, PD",[32],1 (50.0) n (%)
same,"Response, SD at wk 6",[32],1 (50.0) n (%)
same,Median PFS,[33],8.2 months
same,"Response, NE",[33],1 (33.3) 1 (33.3) 1 (33.3) n (%)
same,"Response, PD",[33],1 (33.3) 1 (33.3) 1 (33.3) n (%)
same,"Response, SD at wk 6",[33],1 (33.3) 1 (33.3) 1 (33.3) n (%)
same,Median PFS,[34],1.6 months
same,"Response, NE",[34],0 (0.0) n (%)
same,"Response, PD",[34],4 (66.7) n (%)
same,"Response, SD at wk 6",[34],2 (33.3) n (%)
same,Median PFS,[35],4.1 months
same,"Response, NE",[35],0 (0.0) n (%)
same,"Response, PD",[35],1 (33.3) n (%)
same,"Response, SD at wk 6",[35],2 (66.7) n (%)
same,Median PFS,[36],1.9 months
same,"Response, NE",[36],3 (18.8) n (%)
same,"Response, PD",[36],8 (50.0) n (%)
same,"Response, SD at wk 6",[36],5 (31.3) n (%)
same,Median PFS,[37],2.8 months
same,"Response, NE",[37],1 (9.1) n (%)
same,"Response, PD",[37],5 (45.5) n (%)
same,"Response, SD at wk 6",[37],5 (45.5) n (%)
same,Median PFS,[38],6.2 months
same,"Response, NE",[38],2 (50.0) n (%)
same,"Response, PD",[38],0 (0.0) n (%)
same,"Response, SD at wk 6",[38],2 (50.0) n (%)
same,Median PFS,[39],2.4 months
same,"Response, NE",[39],8 (14.8) n (%)
same,"Response, PD",[39],24 (44.4) n (%)
same,"Response, SD at wk 6",[39],22 (40.7) n (%)
same,Overall clinical benefit rate at 12 weeks,in vivo,27.4%
same,Patients with stable disease at 12 weeks,monotherapy cohort,27.4%
same,Patients with stable disease,monotherapy cohort overall,40.3%
same,Objective response,"monotherapy cohort, RECIST 1.1",no objective responses were noted
same,Median PFS,monotherapy overall,2.3 months
same,Median PFS,"monotherapy, PAM+ patients",2.4 months
same,Stable disease at 6 weeks,[40],14.3%
same,Stable disease at 12 weeks,[40],14.3%
same,Stable disease at 12 weeks,"monotherapy, PAM+ without confounding alterations, 14/47",29.8%
same,Stable disease at 6 weeks,"monotherapy, PAM+ without confounding alterations, 21/47",44.7%
same,PFS of the five patients with PFS ≥ 6 months,"monotherapy, all PAM+ without confounding alterations",7.1–16.4 months
same,"Median PFS, PAM+ patients with confounding alterations (KRAS, EGFR, AKT2)","monotherapy, n = 7",1.4 months
same,"Median PFS, PAM+ patients without confounding alterations","monotherapy, n = 47",2.8 months

# — PMC8371902, “Phase 1 study of M2698, a p70S6K/AKT dual inhibitor, in patients with advanced cancer” (Journal of Hematology & Oncology, 2021)
